As a reminder, the inhibition is the drop in the measured response relative to a control, in per cent.

Holding throughout (experiment): Large panel kinase profiling
Assay type in all cases: biochemical
Conditions in all cases: 1 μM test article, 1 mM ATP

In assay [1] the target is CAMK1A (Homo sapiens, UniProt Q14012). A digest of the protocol:
(§1)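 CSox-Sensor fluorescence readout; test article 1 μM, ATP 1 mM, 30° C.; kinetic reads at 1-min intervals, Ex 360/Em 485 nm.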

The target of assay [2] is T1, DYRK3 (Homo sapiens, UniProt O43781).
T1 construct: AssayQuant Technologies, Inc. (service laboratory)
T1 sequence (O43781 1-588): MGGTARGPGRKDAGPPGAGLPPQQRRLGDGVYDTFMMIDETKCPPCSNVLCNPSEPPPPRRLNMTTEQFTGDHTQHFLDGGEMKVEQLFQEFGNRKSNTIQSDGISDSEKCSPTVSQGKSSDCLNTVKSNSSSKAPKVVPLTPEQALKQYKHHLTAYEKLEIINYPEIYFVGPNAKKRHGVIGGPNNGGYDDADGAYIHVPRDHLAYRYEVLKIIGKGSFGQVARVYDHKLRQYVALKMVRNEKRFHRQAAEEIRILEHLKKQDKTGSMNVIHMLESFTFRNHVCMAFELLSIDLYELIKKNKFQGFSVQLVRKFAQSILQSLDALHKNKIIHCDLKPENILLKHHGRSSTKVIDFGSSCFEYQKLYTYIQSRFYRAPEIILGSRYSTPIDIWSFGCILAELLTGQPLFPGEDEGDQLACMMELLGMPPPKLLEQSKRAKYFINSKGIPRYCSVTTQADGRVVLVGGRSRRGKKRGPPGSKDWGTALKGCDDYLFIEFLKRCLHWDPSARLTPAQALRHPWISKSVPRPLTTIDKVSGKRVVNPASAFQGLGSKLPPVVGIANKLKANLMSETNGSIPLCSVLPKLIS
A digest of the protocol: as §1

Assay [3] deals with FGR (Homo sapiens, UniProt P09769). In short, it runs like this: as §1
Assay [4] deals with T2, HIPK3 (Homo sapiens, UniProt Q9H422).
T2 construct: AssayQuant Technologies, Inc. (service provider)
T2 sequence (Q9H422 whole entry, species assumed): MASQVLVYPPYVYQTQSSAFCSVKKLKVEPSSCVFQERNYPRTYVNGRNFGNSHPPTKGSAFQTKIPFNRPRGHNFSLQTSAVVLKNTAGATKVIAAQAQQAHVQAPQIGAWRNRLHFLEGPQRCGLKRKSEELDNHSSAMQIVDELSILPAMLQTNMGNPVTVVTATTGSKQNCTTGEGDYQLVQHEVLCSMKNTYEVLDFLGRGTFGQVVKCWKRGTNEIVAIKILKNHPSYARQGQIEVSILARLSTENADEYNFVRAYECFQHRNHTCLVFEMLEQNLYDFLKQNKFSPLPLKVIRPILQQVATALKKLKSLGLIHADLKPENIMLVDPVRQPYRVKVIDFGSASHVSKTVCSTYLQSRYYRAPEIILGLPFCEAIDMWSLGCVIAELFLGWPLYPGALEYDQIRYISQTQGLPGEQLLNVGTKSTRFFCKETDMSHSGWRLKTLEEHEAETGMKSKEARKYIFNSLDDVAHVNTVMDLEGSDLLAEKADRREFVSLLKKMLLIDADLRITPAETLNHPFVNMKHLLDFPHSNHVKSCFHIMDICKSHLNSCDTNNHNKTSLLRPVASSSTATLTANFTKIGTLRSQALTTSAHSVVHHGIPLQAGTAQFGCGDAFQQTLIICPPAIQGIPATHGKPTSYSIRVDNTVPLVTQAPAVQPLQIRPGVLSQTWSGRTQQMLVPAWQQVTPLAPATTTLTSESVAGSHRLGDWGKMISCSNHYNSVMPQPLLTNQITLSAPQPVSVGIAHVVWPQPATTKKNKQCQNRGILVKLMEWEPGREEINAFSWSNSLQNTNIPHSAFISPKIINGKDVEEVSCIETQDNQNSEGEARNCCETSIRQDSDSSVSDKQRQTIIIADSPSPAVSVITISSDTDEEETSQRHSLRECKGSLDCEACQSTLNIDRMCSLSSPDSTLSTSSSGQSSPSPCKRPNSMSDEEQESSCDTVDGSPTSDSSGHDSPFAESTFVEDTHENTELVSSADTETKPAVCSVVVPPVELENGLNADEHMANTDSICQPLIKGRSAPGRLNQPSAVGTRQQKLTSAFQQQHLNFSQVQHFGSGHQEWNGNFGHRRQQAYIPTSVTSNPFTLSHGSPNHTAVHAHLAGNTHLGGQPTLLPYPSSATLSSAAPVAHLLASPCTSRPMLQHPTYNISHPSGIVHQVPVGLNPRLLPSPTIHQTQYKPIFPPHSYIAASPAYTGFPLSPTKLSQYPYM
A digest of the protocol: as §1

Assay [5] concerns the target KDR (Homo sapiens, UniProt P35968). In short, it runs like this: as §1
The target in assay [6] is MAP3K10 (Homo sapiens, UniProt Q02779). In short, it runs like this:
as §1

The target of assay [7] is T3, MAPK11/P38B (Homo sapiens, UniProt Q15759).
T3 construct: AssayQuant Technologies, Inc. (service provider)
In short, it runs like this: as §1

Assay [8] has as its target T4, MAPK14/P38A (Homo sapiens, UniProt Q16539).
T4 construct: AssayQuant Technologies, Inc. (service provider)
A digest of the protocol:
as §1

Assay [9] concerns the target T5, NEK4 (Homo sapiens, UniProt P51957).
T5 construct: AssayQuant Technologies, Inc. (assay service)
A digest of the protocol:
as §1

In assay [10] the target is PAK2 (Homo sapiens, UniProt Q13177). In short, it runs like this:
as §1

For assay [11], the target named is RIPK2 (Homo sapiens, UniProt O43353). In short, it runs like this: as §1
Sequence of RIPK2 (O43353 whole entry, species assumed): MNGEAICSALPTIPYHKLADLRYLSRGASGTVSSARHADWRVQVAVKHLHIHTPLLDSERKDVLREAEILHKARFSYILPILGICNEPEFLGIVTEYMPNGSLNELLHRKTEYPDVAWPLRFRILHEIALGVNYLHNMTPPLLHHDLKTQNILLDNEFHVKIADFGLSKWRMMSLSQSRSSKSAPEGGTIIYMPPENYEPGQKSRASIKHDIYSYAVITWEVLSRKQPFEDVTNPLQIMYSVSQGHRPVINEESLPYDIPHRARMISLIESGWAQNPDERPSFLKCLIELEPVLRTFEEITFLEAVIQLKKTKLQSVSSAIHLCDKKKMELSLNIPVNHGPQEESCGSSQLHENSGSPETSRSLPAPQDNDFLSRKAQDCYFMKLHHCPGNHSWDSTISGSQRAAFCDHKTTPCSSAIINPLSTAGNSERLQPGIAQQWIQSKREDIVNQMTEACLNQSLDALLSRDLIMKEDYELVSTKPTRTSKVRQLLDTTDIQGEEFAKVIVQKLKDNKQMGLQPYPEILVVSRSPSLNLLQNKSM
In assay [12] the target is T6, TXK (Homo sapiens, UniProt P42681).
T6 construct: AssayQuant Technologies, Inc. (contract laboratory that ran the panel)
T6 sequence (P42681 1-527): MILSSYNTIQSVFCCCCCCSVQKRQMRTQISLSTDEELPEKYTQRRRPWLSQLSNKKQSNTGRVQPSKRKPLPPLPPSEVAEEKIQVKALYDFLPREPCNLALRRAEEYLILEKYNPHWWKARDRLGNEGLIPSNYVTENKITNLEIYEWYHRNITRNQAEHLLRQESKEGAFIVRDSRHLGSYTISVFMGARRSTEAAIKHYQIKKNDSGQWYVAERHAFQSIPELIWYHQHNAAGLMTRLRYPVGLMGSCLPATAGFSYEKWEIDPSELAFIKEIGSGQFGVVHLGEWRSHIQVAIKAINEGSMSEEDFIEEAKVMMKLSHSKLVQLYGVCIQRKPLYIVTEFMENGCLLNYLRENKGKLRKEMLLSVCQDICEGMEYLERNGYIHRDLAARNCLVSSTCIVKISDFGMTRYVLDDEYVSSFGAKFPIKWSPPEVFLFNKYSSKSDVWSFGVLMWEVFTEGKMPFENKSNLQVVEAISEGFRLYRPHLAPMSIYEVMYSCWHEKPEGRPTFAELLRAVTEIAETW
A digest of the protocol:
as §1

Sequence of PAK2 (Q13177 whole entry, species assumed): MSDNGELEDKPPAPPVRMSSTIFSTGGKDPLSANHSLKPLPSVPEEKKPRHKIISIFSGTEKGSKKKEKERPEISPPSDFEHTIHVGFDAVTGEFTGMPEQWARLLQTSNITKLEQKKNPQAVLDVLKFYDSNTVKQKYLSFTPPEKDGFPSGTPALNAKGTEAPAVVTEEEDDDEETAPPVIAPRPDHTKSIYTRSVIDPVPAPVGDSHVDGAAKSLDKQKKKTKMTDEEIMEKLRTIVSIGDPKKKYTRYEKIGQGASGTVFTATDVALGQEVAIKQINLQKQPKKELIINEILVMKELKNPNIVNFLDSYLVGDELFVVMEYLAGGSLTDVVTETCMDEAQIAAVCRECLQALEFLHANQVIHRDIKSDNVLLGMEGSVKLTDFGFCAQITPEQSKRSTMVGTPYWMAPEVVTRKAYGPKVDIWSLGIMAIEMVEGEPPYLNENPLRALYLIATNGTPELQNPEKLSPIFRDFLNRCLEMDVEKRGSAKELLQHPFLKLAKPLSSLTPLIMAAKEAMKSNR
Sequence of KDR (P35968 20-1356, species assumed): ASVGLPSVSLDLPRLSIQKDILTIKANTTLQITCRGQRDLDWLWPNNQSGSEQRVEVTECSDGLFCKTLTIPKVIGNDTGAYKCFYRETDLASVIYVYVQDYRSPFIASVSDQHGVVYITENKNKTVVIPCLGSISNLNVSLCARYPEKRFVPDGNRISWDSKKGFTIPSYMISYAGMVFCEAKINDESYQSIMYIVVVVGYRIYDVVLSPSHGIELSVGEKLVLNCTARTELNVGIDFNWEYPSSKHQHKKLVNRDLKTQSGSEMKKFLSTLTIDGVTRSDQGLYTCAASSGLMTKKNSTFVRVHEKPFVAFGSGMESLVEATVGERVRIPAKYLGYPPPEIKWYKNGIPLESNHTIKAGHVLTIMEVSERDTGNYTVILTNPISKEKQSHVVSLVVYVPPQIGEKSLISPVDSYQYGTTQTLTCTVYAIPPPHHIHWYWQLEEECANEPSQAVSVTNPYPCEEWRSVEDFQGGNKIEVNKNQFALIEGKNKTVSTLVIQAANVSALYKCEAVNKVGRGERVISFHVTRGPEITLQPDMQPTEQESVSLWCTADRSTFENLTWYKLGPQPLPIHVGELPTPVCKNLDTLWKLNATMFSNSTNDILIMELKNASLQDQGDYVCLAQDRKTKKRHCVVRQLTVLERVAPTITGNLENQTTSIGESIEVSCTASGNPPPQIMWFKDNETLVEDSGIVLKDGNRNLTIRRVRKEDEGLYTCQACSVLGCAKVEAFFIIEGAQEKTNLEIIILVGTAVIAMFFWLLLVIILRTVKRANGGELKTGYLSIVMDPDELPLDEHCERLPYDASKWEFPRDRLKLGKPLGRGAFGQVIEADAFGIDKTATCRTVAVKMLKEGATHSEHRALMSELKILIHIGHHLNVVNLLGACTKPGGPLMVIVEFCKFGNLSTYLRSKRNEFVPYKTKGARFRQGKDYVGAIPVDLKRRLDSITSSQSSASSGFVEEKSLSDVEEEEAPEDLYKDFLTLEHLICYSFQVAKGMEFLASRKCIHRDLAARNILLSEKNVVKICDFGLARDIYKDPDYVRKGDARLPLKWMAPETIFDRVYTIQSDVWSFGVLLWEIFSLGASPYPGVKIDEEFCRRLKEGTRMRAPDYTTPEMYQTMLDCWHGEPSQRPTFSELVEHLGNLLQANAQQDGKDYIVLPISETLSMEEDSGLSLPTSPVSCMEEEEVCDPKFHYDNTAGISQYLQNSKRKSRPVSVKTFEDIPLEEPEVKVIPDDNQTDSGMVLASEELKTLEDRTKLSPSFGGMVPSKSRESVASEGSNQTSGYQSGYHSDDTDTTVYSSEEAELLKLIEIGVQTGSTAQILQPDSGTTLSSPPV
T5 sequence (P51957 whole entry, species assumed): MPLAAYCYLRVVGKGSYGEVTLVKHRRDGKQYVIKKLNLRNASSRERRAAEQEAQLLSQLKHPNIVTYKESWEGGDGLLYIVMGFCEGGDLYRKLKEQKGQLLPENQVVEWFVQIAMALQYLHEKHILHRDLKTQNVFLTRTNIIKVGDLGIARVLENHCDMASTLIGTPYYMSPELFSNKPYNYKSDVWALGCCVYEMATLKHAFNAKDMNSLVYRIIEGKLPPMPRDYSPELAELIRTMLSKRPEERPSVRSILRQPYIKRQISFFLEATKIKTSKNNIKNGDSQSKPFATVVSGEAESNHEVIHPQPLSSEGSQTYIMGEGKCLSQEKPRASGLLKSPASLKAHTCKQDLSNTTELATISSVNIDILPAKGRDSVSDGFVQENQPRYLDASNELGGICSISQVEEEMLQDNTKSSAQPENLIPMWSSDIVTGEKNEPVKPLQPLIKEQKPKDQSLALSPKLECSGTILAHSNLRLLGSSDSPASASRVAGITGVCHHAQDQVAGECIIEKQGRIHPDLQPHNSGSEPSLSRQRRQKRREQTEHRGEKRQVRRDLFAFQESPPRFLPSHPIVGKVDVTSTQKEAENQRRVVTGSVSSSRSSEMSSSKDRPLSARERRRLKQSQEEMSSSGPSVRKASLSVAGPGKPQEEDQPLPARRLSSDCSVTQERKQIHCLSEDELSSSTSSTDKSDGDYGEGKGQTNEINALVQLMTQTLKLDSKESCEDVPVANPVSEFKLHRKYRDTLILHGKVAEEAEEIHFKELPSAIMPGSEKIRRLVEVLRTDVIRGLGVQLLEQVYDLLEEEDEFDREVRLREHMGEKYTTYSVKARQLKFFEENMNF
Sequence of CAMK1A (Q14012 whole entry): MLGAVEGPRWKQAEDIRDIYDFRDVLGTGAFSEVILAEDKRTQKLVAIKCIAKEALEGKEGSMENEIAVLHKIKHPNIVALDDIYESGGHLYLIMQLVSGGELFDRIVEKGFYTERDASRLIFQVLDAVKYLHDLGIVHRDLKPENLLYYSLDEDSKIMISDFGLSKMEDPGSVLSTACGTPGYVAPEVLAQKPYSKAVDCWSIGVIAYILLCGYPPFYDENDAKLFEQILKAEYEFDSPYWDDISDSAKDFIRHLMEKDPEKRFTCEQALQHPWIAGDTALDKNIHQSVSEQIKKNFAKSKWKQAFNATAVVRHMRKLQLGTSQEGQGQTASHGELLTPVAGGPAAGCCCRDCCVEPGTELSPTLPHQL

Regarding `C=CC(=O)N1CCCC(c2c(F)cc(C(N)=O)c3[nH]c4c(c23)CCCCC4)C1` (single isomer, unassigned) [Compound 5-6], the inhibition at 1 µM was 24.4% in [1]; 2.8% in assay [2]; 17.1% in assay [3]; -11.2% in [4]; 10.3% in assay [5]; -8.6% in assay [6]. Also, the inhibition at 1 µM in assay [7] was -3.3%; in assay [8] it was -8.3%; in assay [9], -5.3%; in assay [10] it was 13.9%; in assay [11], 7.1%; in assay [12], 74.7%.
On to `C=CC(=O)N1CCC[C@@H](c2c(F)cc(C(N)=O)c3[nH]c4c(c23)CC2(CC4)CC2)C1` [Compound 6-2, (S)-5-(1-acryloylpiperidin-3-yl)-6-fluoro-1,2,4,9-tetrahydrospiro[carbazole-3,1′-cyclopropane]-8-carboxamide], for which the inhibition at 1 µM in assay [1] was 34.5%; in [2], -4.9%; in [3] it was -25.9%; in [4], 30.6%; in [5], 31.6%; in assay [6], 18.9%. For the same compound, the inhibition at 1 µM in assay [7] is 32.9%; in assay [8], 28.2%; in assay [9], -6.5%; in assay [10], 1.3%; in [11], -31.3%; in [12], 59.1%.
Turning to `C=CC(=O)N1CCC[C@@H](c2c(F)cc(C(N)=O)c3[nH]c4c(c23)CCC4)C1` [Compound 10-2, (S)-8-(1-acryloylpiperidin-3-yl)-7-fluoro-1,2,3,4-tetrahydrocyclo-penta[b]indole-5-carboxamide], the inhibition at 1 µM is 7.9% in [1]; -3.3% in [2]; 3.6% in [3]; 34.7% in assay [4]; 32.7% in [5]; -17.7% in assay [6]. Moreover, the inhibition at 1 µM was 5.7% in assay [7]; 5% in assay [8]; -11.1% in assay [9]; 7% in [10]; -45.4% in assay [11]; 71% in assay [12].

Values taken from patent US20220009920A1 (GB005, Inc., priority 2020, published 2022).
